The test system of one test is ER exit sites (ERES). The format is cell-based, mouse. The method, then: Mouse Neuro-2a cells were cultured using standard tissue culture techniques and maintained in 45% DMEM, 45% OptiMEM and 10% FBS. Plasmid concentrations used for transfection were as follows: 500 ng of each nAChR subunit, 75 ng of pCS2-mcherry, 250 ng of Sec24D constructs, 100 ng of pDsRed2-ER, 250 ng of GaIT-eCFP and 500 ng of ATF6-eGFP. 90,000 cells were plated in poly-D-lysine coated 35 mm MatTek glass bottom imaging dishes. The following day, plasmid DNA was mixed with cationic lipids by adding appropriate DNA concentrations to 4 μl of Expressfect transfection reagent in 200 μl DMEM final volume and incubated for 20 min at room temperature to form cationic lipid-DNA complexes. DMEM+DNA-lipid complexes were added to Neuro-2a cells in 1 ml of DMEM+10% FBS and incubated at 37° C. for 4 h. Dishes were rinsed 2× with DMEM, then filled with 3 ml of DMEM+10% FBS and incubated at 37° C. for 48 h. Nicotine, cytisine or DHβE was added at appropriate concentrations during the change of medium following 4 h incubation with Expressfect-plasmid DNA complexes.
Neuro-2a cells were co-transfected with 500 ng each of α4-mcherry and β2-wt nAChR subunits and 250 ng of the ERES marker, Sec24D-eGFP. Each cell was focused to a plane where the maximum ERES were visualized. Sequential images of eGFP and mcherry fluorescence were obtained and linearly unmixed. For quantification, ERES regions of interest (ROIs) were demarcated using intensity-based thresholding and counted for each cell using the particle analysis feature in ImageJ version 1.44 or later. The fluorescence intensity was obtained for each ERES body within the cells and average ERES intensity was plotted. Error bars for ERES measurements are ±standard error of mean (SEM) and p values are based on a 2-tailed t test.

The next test relates to Neuro-2a cells. The format is cell-based, mouse. The method, then:
Neuro-2a cells were transfected with α4-eGFP (500 ng)+β2wt (500 ng)+GaIT-mcherry (250 ng) or pDSred2-ER (100 ng) and cells were incubated for 48 h with appropriate concentrations of nicotine, cytisine or DHβE.
Two color fluorescence signals were separated with a dichroic and optical filters aligned in the emission path where green and red emission was separately aligned to the two halves of an EMCCD. Post-acquisition processing of images used Metamorph to demarcate TGN bodies and to extract number, size and intensity statistics.

The target of a further test is T1, α4-eGFPβ2-wt nAChRs (Mus musculus, UniProt O70174+Q9ERK7).
T1 construct: expressed in transfected cells; host or cells: mouse Neuro-2a cells
T1 sequence (O70174 31-629): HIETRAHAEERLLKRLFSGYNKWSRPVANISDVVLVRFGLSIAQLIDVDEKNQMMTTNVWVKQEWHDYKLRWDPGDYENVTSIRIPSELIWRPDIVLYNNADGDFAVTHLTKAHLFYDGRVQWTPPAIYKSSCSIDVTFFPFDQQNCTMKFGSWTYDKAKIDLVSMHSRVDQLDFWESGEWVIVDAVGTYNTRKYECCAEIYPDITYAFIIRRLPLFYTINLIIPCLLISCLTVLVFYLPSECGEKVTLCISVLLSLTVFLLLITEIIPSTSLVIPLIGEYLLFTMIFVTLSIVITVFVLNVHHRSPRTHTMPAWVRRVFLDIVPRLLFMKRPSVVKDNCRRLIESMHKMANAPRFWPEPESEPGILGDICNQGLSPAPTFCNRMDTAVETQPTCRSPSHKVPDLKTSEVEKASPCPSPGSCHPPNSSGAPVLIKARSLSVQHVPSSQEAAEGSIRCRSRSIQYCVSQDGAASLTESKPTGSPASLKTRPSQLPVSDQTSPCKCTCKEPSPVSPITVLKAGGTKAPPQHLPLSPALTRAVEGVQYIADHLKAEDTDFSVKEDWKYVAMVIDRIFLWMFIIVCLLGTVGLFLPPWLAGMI
T1 sequence (Q9ERK7 26-501): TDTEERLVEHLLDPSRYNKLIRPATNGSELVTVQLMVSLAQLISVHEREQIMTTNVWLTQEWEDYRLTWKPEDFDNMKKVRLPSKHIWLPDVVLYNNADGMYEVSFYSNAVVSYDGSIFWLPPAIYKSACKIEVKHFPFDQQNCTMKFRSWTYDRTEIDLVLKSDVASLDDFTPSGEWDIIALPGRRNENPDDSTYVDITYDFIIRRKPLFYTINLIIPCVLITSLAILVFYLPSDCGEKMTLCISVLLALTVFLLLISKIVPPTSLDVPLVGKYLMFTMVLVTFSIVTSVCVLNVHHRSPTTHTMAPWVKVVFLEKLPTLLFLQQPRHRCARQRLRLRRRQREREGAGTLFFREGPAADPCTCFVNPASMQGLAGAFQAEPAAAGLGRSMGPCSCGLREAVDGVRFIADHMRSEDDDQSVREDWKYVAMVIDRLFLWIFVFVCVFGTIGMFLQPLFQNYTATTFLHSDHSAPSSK
The format is cell-based. From the text:
Details of the quantification method have been previously described (Srinivasan et al., 2011). Briefly, PM fluorescence was extracted as follows: Raw TIRF images were converted to background-subtracted images and the ER fluorescence was thresholded and selected. ER fluorescence was then subtracted from the original image to generate images with PM fluorescence signals. These procedures yielded a dataset of several hundred thousand pixel intensities over the 15-50 cells in each experimental group. Fluorescence intensities are simply the sum of pixel values for either the PM or the ER or the ER+PM (using whole TIRF footprint images). Mean PM fluorescence intensity was derived by dividing the total fluorescence intensity for each experimental group by the number of imaged cells and normalized to intensity of untreated cells. Ratios of fluorescence intensities for the whole TIRF footprint (ER+PM) to ER were used to determine the post-Golgi fraction of receptors. For PM integrated density measurements, rather than plotting SEMs (which would be indistinguishably small on the plots), we have used “error bars” to depict 99% confidence intervals based on a two-tailed t-test. Measurements from drug treated cells were normalized to values of untreated cells imaged on the same day. DHβE TIRF experiments were performed on a different day from nicotine and cytisine experiments.

In another test the target is α4β2 nAChRs (Mus musculus, UniProt O70174+Q9ERK7). Particulars: chronic nicotine, 200 nM for 24 hr. From the text:
We used superecliptic phluorin (SEP) fused to the C-terminus of alpha4 nicotinic receptors (nAChRs) to examine the subcellular distribution and trafficking dynamics of receptors expressed in cortical neurons. SEP is a pH-sensitive version of green fluorescent protein (GFP) that undergoes 488 nm excitation at neutral pH (˜7.4), but loses this excitation maximum under acidic conditions (12). As a result, SEP neither photobleaches nor fluoresces at low pH but regains its fluorescence at neutral and basic pH. Tagging of α4 on the extracellular C-terminus results in the orientation of SEP on the lumenal side of most organelle types in the secretory pathway. While the endoplasmic reticulum (ER) and cis-Golgi have lumenal pH of ˜7.2 and ˜6.7, respectively, the lumen of both the trans-Golgi network and secretory vesicles is much more acidic (pH<6.5) (39). If one illuminates via total internal reflection (TIRF) microscopy, only those receptors resident in nearly neutral organelles close to the plasma membrane, or inserted in the plasma membrane, are visible within the excitation field. Thus, receptors in the later stages of the secretory pathway neither fluoresce nor photobleach due to the acidic environment. […]

Sequence of α4β2 nAChRs (O70174 31-629): as the sequence (O70174 31-629) above
Sequence of α4β2 nAChRs (Q9ERK7 26-501): as the sequence (Q9ERK7 26-501) above

`CN1CCCC1c1cccnc1` (stereo not drawn) [Nicotine, nicotine]: the “increase in ERES fluorescence / formation of ERES” value in the test on ER exit sites (ERES) is given as around 2 fold. Also, in the test on Neuro-2a cells, the TGN intensity entry is listed as “no effect”, the “effect on the average intensity of TGN bodies (in words)” value is given as “did not affect”, the “effect on the number of TGN bodies (in words)” value was “increased” and the “increase in the average number of TGN bodies per cell” value is listed as around 2 fold. For the same compound, on α4-eGFPβ2-wt nAChRs, the “effect on the footprint/ER ratio (in words)” value was “reduction”, the “increase in PM-localized nAChRs” value amounted to 2 fold and the “reduction of the footprint/ER ratio” value was around 2 fold. For the same compound, the “increase in the number of insertion events, α4β2 nAChRs” value at α4β2 nAChRs is recorded as around 2 fold.

The values above are taken from patent publication US20130197023A1, “NEUROPROTECTION BY PHARMACOLOGICAL CHAPERONING OF NICOTINIC ACETYLCHOLINE RECEPTORS” (priority 2012, published 2013).
